# Data published in article PMC12775434, “Ultra-large virtual screening unveils potent agonists of the neuromodulatory orphan receptor GPR139” (Nature Communications, 2025).
# Several values for one entry are separate records, joined by “and”; a condition that tells them apart may be missing. Equal values may be shown once.
# How the values were obtained:
# GPR139 (Gi3 activation) = molecular target: T1, GPR139 (Gi3 activation) (Homo sapiens, UniProt Q6DWJ6); test: BRET G protein activation (dissociation) assay, Gi3, HEK293A; assay type: cell-based; details: for G protein activation, Gi3: individual replicates, listed as JNJ (S)
# T1 construct: expressed in transfected cells; host or cells: HEK293A (transient, Lipofectamine 2000)
# T1 sequence (Q6DWJ6 1-353): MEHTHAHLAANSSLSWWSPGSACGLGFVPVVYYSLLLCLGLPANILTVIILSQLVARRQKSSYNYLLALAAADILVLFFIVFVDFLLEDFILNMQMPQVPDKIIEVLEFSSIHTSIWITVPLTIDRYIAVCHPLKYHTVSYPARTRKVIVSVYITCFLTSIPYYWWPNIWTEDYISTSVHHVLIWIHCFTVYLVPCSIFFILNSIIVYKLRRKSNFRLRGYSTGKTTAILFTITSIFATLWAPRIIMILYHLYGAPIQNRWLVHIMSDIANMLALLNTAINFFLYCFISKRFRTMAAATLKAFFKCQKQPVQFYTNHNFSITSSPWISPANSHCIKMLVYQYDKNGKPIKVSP
# Protocol: (§1) Primary screening and pharmacological characterization of compounds were performed using a CHO-K1 cell line that stably expresses human GPR139 (GPR139-CHOk1). The GPR139-CHOk1 cell line was kindly provided by H. Lundbeck A/S, Denmark[24]. GPR139-CHOk1 cells were grown in Ham’s F-12 Kaighn’s Modification Medium (ThermoFisher #21127030) supplemented with 10% dialyzed fetal bovine serum (US origin, ThermoFisher #26400044), 100 units/mL Penicillin-Streptomycin (ThermoFisher #15140122), and 1 mg/mL Geneticin (ThermoFisher #11811031). […] M1R-CHOk1 cells were purchased from The Missouri S&T cDNA Resource Center (#CEM100TN00). M1R-CHOk1 cells were grown in Ham’s F12 Medium (ThermoFisher #21765029) supplemented with 10% fetal bovine serum (Brazilian origin, ThermoFisher #10270106), 100 units/mL Penicillin-Streptomycin, and 0.25 mg/mL Geneticin. HEK293A cells transiently transfected with GPR139 were used for additional pharmacological assessment of signaling pathways activated by GPR139. HEK239A cells were generously provided by Dr. Asuka Inoue, Tohoku University, Japan. HEK293A cells were grown in Dulbecco’s Modified Eagle Medium (ThermoFisher #31966047) supplemented with 10% dialyzed fetal bovine serum and 100 units/mL Penicillin-Streptomycin. Cell lines were maintained at 37 °C in humidified incubator equilibrated with 5% CO2.
# (§2) The G protein dissociation assay developed by the lab of Kirill A. Martemyanov was used to measure the coupling of multiple G proteins by GPR139[57]. The assay was performed as described previously with minor modifications. HEK293A cells were reverse transfected 20–24 h prior to assay. 50,000 cells were plated in each well of white opaque tissue culture treated 96-well plates (PerkinElmer #6005680) previously coated with poly-D-lysine. Transfection solutions were prepared as described, and 10 µL transfection solution was mixed with 100 µL cells in each well. The cells in each well were transfected with 18.9 ng GPR139, 6.3 ng Venus 1-155 Gγ2, 6.3 ng Venus 159-239 Gβ1, 6.3 ng masGRK3ct-NanoLuc and 12.6 ng Gαi2, 12.6 ng Gαi3, 12.6 ng GαoA, 12.6 ng Gαq or 25.2 ng Gα12 using 375 nL Lipofectamine 2000 Transfection Reagent. Transfections with Gαq and Gα12 contained 6.3 ng DNA of the active subunit S1 of pertussis toxin (PTX-S1). Each transfection was normalized to 150 ng total DNA with pcDNA3.1. The BRET biosensors were a kind gift from the Martemyanov lab. On the day of the experiment the cells were washed with HEPES buffer. Test compounds were diluted in HEPES buffer from DMSO stocks (final DMSO concentration of maximally 0.3%). NanoLuc Luciferase substrate NanoGlo—furimazine (Promega #N1120) was diluted 1000-fold (final) in HEPES buffer. NanoGlo and test compounds were added, and measurements were performed after 10 s for Gi3, 15 s for Gi2 and GoA, 20 s for Gq, and 90 s for G12—the timepoint where maximal signal occurred with each G protein, ensuring proper determination of the potency for the G protein coupling. Simultaneous dual emission was measured at 535 nm and 475 nm on LUMIstar Omega Microplate Reader (BMG Labtech) at room temperature. The BRET ratio of 535 nm/475 nm (Venus/NanoLuc), reflecting the dissociation of the G protein heterotrimer, was used to determine the G protein activation. The basal BRET ratio obtained with buffer condition was subtracted from the absolute BRET ratio at a given test compound concentration, and the responses were normalized to the one obtained with 10 µM JNJ-63533054 for the activation of Gi2.
# (§3) Pharmacological data and statistical analyses were performed in GraphPad Prism v9–10 (Graphpad Software Inc., San Diego, CA), which are also specifically described in the figure and table legends. […]
# GPR139 (G12 activation) = molecular target: T2, GPR139 (G12 activation) (Homo sapiens, UniProt Q6DWJ6); test: BRET G protein activation (dissociation) assay, G12, HEK293A; assay type: cell-based; details: for G protein activation, G12: individual replicates, listed as JNJ (S)
# T2 construct: expressed in transfected cells; host or cells: HEK293A (transient, Lipofectamine 2000)
# T2 sequence (Q6DWJ6 1-353): T1 sequence (Q6DWJ6 1-353)
# Protocol: as §1, §2, §3
# [1] = HEK293-A, normalized to JNJ-63533054 (JNJ(S))
structure (smiles),measurement,setting,value
"CC(NC(=O)CNC(=O)c1cccc(Cl)c1)c1ccccc1 (centres unmarked) [JNJ-63533054, reference compound]",Emax,GPR139 (Gi3 activation); [1],56 ± 4%
same,EC50,"GPR139 (Gi3 activation); Supplementary Table 6, read-out: pEC50 Gi3 (converted)",0.1 µM
same,"G protein activation, Gi3",GPR139 (Gi3 activation); log [compound] M -4.5,63 % of JNJ-63533054 at Gi2 and 48 % of JNJ-63533054 at Gi2 and 54 % of JNJ-63533054 at Gi2
same,"G protein activation, Gi3",GPR139 (Gi3 activation); log [compound] M -5.0,59 % of JNJ-63533054 at Gi2 and 44 % of JNJ-63533054 at Gi2 and 57 % of JNJ-63533054 at Gi2
same,"G protein activation, Gi3",GPR139 (Gi3 activation); log [compound] M -5.5,57 % of JNJ-63533054 at Gi2 and 41 % of JNJ-63533054 at Gi2 and 51 % of JNJ-63533054 at Gi2
same,"G protein activation, Gi3",GPR139 (Gi3 activation); log [compound] M -6.0,52 % of JNJ-63533054 at Gi2 and 39 % of JNJ-63533054 at Gi2 and 42 % of JNJ-63533054 at Gi2
same,"G protein activation, Gi3",GPR139 (Gi3 activation); log [compound] M -6.5,48 % of JNJ-63533054 at Gi2 and 28 % of JNJ-63533054 at Gi2 and 40 % of JNJ-63533054 at Gi2
same,"G protein activation, Gi3",GPR139 (Gi3 activation); log [compound] M -7.0,37 % of JNJ-63533054 at Gi2 and 22 % of JNJ-63533054 at Gi2 and 29 % of JNJ-63533054 at Gi2
same,"G protein activation, Gi3",GPR139 (Gi3 activation); log [compound] M -7.5,26 % of JNJ-63533054 at Gi2 and 11 % of JNJ-63533054 at Gi2 and 24 % of JNJ-63533054 at Gi2
same,"G protein activation, Gi3",GPR139 (Gi3 activation); log [compound] M -8.0,10 % of JNJ-63533054 at Gi2 and 5.6 % of JNJ-63533054 at Gi2 and 14 % of JNJ-63533054 at Gi2
same,Emax,GPR139 (G12 activation); [1],57 ± 1%
same,EC50,"GPR139 (G12 activation); Supplementary Table 6, read-out: pEC50 G12 (converted)",0.0251 µM
same,"G protein activation, G12",GPR139 (G12 activation); log [compound] M -4.5,60 % of JNJ-63533054 at Gi2 (2×) and 57 % of JNJ-63533054 at Gi2
same,"G protein activation, G12",GPR139 (G12 activation); log [compound] M -5.0,55 % of JNJ-63533054 at Gi2 and 54 % of JNJ-63533054 at Gi2 and 57 % of JNJ-63533054 at Gi2
same,"G protein activation, G12",GPR139 (G12 activation); log [compound] M -5.5,53 % of JNJ-63533054 at Gi2 and 55 % of JNJ-63533054 at Gi2 and 54 % of JNJ-63533054 at Gi2
same,"G protein activation, G12",GPR139 (G12 activation); log [compound] M -6.0,50 % of JNJ-63533054 at Gi2 and 51 % of JNJ-63533054 at Gi2 and 53 % of JNJ-63533054 at Gi2
same,"G protein activation, G12",GPR139 (G12 activation); log [compound] M -6.5,52 % of JNJ-63533054 at Gi2 and 46 % of JNJ-63533054 at Gi2 and 48 % of JNJ-63533054 at Gi2
same,"G protein activation, G12",GPR139 (G12 activation); log [compound] M -7.0,47 % of JNJ-63533054 at Gi2 and 42 % of JNJ-63533054 at Gi2 and 38 % of JNJ-63533054 at Gi2
same,"G protein activation, G12",GPR139 (G12 activation); log [compound] M -7.5,32 % of JNJ-63533054 at Gi2 and 33 % of JNJ-63533054 at Gi2 and 26 % of JNJ-63533054 at Gi2
same,"G protein activation, G12",GPR139 (G12 activation); log [compound] M -8.0,22 % of JNJ-63533054 at Gi2 and 21 % of JNJ-63533054 at Gi2 and 16 % of JNJ-63533054 at Gi2
